tested on: soybean cyst nematode (Heterodera glycines); experiment: Test on effects against soybean cyst nematode: treated contaminated soil, soybean pot test (Test Example 3); type: in vivo; set-up: key: 0: No parasitic cyst observed on the roots at all; 1: Parasitic cyst observed to a slight degree; 2: Parasitic cyst observed to a moderate degree; 3: Parasitic cyst observed to a heavy degree; 4: Parasitic cyst observed densely on the entire roots; details: 800 ppm, 10 ml poured to 200 ml contaminated soil, about one month after sowing
Procedure: . The treated soil was put into a pot, three soybean seeds were sown, and the pot was placed in a greenhouse. About one month after the sowing of the soybean seeds, the parasite index was determined based on the cyst parasite level on the roots shown in Table 7.

Compound	parasite index
O=CNN=C(c1ccccc1)C1(n2cnc(C(F)(F)F)n2)CC1 (single isomer, unassigned) [B-3]	1
CN(C=O)N=C(c1ccc(Cl)cc1)C(C)(C)n1ccc(C(F)(F)F)n1 [A-91]	1
COCN(C=O)N=C(c1ccc(F)cc1)C(C)(C)n1ccc(C(F)(F)F)n1 [A-109]	1
CN(C=O)N=C(c1ccccc1)C1(n2cnc(C(F)(F)F)n2)CC1 [B-6]	1
COCN(C=O)N=C(c1ccccc1)C1(n2cnc(C(F)(F)F)n2)CC1 [B-24]	1

tested on: southern root-knot nematode (Meloidogyne incognita); experiment: Test on effects against southern root-knot nematode: treated contaminated soil, cucumber pot test (Test Example 1 and Comparative Test); type: in vivo; set-up: key: 0: No knot formed on the root at all; 1: Knots formed to a slight degree; 2: Knots formed to a moderate degree; 3: Knots formed to a heavy degree; 4: Knots formed to the heaviest degree; details: 200 ppm, 10 ml poured to 200 ml contaminated soil; cucumber; two to three weeks after sowing
Procedure: The treated soil was put into a pot, three cucumber seeds were sown, and the pot was placed in a greenhouse. Two to three weeks after the sowing of the cucumber seeds, the root knot index was determined based on the degree of formation of root knots shown in Table 5. Each composition containing Compound No. […]-192 or B-196 at a concentration of 400 ppm and the composition containing Compound No. […] [table] […] Root knot index of 2 corresponds to a state where the proportion of healthy roots is 50% or less to the entire roots, and indicates control effects to such an extent that cucumber as a crop plant to be tested cannot healthily grow.

Compound	root knot index
CC(C)(C(=NNC=O)c1ccccc1F)n1cnc(C(F)(F)F)n1 [A-153]	1

same assay, conditions: 400 ppm, 10 ml poured to 200 ml contaminated soil; cucumber; two to three weeks after sowing

Compound	root knot index
O=CNN=C(c1ccccc1)C1(n2cnc(C(F)(F)F)n2)CC1 (single isomer, unassigned) [B-3]	1
O=CNN=C(c1ccc(Cl)cc1)C1(n2ccc(C(F)(F)F)n2)CC1 (single isomer, unassigned) [B-87]	1
O=CNN=C(c1ccc(F)cc1)C1(n2ccc(C(F)(F)F)n2)CC1 (single isomer, unassigned) [B-105]	1
CC(C)(C(=NNC=O)c1ccc(Cl)cc1)n1cnc(C(F)(F)F)n1 [A-90]	1
CN(C=O)N=C(c1ccc(Cl)cc1)C(C)(C)n1cnc(C(F)(F)F)n1 [A-94]	1
CCN(C=O)N=C(c1ccc(Cl)cc1)C(C)(C)n1cnc(C(F)(F)F)n1 [A-95]	1
CCCN(C=O)N=C(c1ccc(Cl)cc1)C(C)(C)n1cnc(C(F)(F)F)n1 [A-96]	1
CC(C)(C(=NNC=O)c1ccccc1Cl)n1ccc(C(F)(F)F)n1 [A-150]	1
CC(C)(C(=NNC=O)c1ccccc1Cl)n1cnc(C(F)(F)F)n1 [A-151]	1
CC(C)(C(=NNC=O)c1ccccc1F)n1ccc(C(F)(F)F)n1 [A-152]	1
CC(C)(C(=NNC=O)c1ccc(F)cc1F)n1ccc(C(F)(F)F)n1 [A-156]	1
CC(C)(C(=NNC=O)c1ccc(F)cc1F)n1cnc(C(F)(F)F)n1 [A-157]	1
CC(C)(C(=NNC=O)c1c(F)cccc1F)n1ccc(C(F)(F)F)n1 [A-160]	1
CC(C)(C(=NNC=O)c1c(F)cccc1F)n1cnc(C(F)(F)F)n1 [A-161]	1
CCN(C=O)N=C(c1ccccc1Cl)C(C)(C)n1ccc(C(F)(F)F)n1 [A-193]	1
C#CCN(C=O)N=C(c1ccccc1Cl)C(C)(C)n1ccc(C(F)(F)F)n1 [A-195]	1
CC(C)(C(=NNC=O)c1ccccc1Cl)n1cnc(C(F)F)n1 [A-198]	1
CC(C)(C(=NNC=O)c1ccccc1Cl)n1ccc(Cl)n1 [A-199]	1
CC(C)(C(=NNC=O)c1ccccc1Cl)n1cnc(Cl)n1 [A-200]	1
CC(C)(C(=NNC=O)c1ccccc1Cl)n1ccc(Br)n1 [A-201]	1
CC(C)(C(=NNC=O)c1ccccc1Cl)n1cnc(Br)n1 [A-202]	1
CC(C)(C(=NNC=O)c1ccccc1Cl)n1ccc(I)n1 [A-203]	1
CC(C)(C(=NNC=O)c1ccccc1Cl)n1ccc([N+](=O)[O-])n1 [A-205]	1
CC(C)(C(=NNC=O)c1ccccc1Cl)n1cnc([N+](=O)[O-])n1 [A-206]	1
CC(C)(C(=NNC=O)c1ccccc1Cl)n1cc(C(F)(F)F)cn1 [A-216]	1

Compound	root knot index
CC(C)(C(=NNC=O)c1ccccc1Cl)n1cc(F)cn1 [A-217]	1
CC(C)(C(=NNC=O)c1ccccc1Cl)n1nc(Br)nc1Br [A-224]	1
CC(C)(C(=NNC=O)c1ccccc1Br)n1ccc(C(F)(F)F)n1 [A-233]	1
COCN(C=O)N=C(c1ccccc1Br)C(C)(C)n1ccc(C(F)(F)F)n1 [A-235]	1
CC(C)(C(=NNC=O)c1ccccc1I)n1ccc(C(F)(F)F)n1 [A-240]	1
CC(C)(C(=NNC=O)c1ccccc1I)n1cnc(C(F)(F)F)n1 [A-241]	1
Cc1ccccc1C(=NNC=O)C(C)(C)n1ccc(C(F)(F)F)n1 [A-244]	1
Cc1ccccc1C(=NNC=O)C(C)(C)n1cnc(C(F)(F)F)n1 [A-245]	1
Cc1ccccc1C(=NNC=O)C(C)(C)n1ccc(Cl)n1 [A-247]	1
Cc1ccccc1C(=NNC=O)C(C)(C)n1cnc(Cl)n1 [A-248]	1
Cc1ccccc1C(=NNC=O)C(C)(C)n1ccc(Br)n1 [A-249]	1
Cc1ccccc1C(=NNC=O)C(C)(C)n1ccc([N+](=O)[O-])n1 [A-251]	1
Cc1ccccc1C(=NNC=O)C(C)(C)n1cnc([N+](=O)[O-])n1 [A-252]	1
Cc1ccccc1C(=NNC=O)C(C)(C)n1ccc(C#N)n1 [A-253]	1
Cc1ccccc1C(=NNC=O)C(C)(C)n1cc(F)cn1 [A-255]	1
Cc1ccccc1C(=NNC=O)C(C)(C)n1cc([N+](=O)[O-])cn1 [A-256]	1
Cc1ccccc1C(=NNC=O)C(C)(C)n1cc(C#N)c(C(F)(F)F)n1 [A-257]	1
CC(C)(C(=NNC=O)c1ccccc1C(F)(F)F)n1cnc(C(F)(F)F)n1 [A-261]	1
COc1ccccc1C(=NNC=O)C(C)(C)n1ccc(C(F)(F)F)n1 [A-264]	1
COc1ccccc1C(=NNC=O)C(C)(C)n1cnc(C(F)(F)F)n1 [A-265]	1
CC(C)(C(=NNC=O)c1ccccc1OC(F)(F)F)n1ccc(C(F)(F)F)n1 [A-270]	1
CC(C)(C(=NNC=O)c1ccccc1OC(F)(F)F)n1ccc(Br)n1 [A-272]	1
CC(C)(C(=NNC=O)c1ccccc1OC(F)(F)F)n1cnc(C#N)n1 [A-273]	1
CC(C)(C(=NNC=O)c1cccc(F)c1)n1cnc(C(F)(F)F)n1 [A-275]	1
CC(C)(C(=NNC=O)c1cccc(F)c1)n1ccc(Cl)n1 [A-277]	1

Compound	root knot index
CC(C)(C(=NNC=O)c1cccc(F)c1)n1cnc(Cl)n1 [A-278]	1
Cc1cccc(C(=NNC=O)C(C)(C)n2ccc(Cl)n2)c1 [A-324]	1
CC(C)(C(=NNC=O)c1cccc(C(F)(F)F)c1)n1cnc(C(F)(F)F)n1 [A-327]	1
COc1cccc(C(=NNC=O)C(C)(C)n2cnc(C(F)(F)F)n2)c1 [A-329]	1
COc1cccc(C(=NNC=O)C(C)(C)n2ccc(Cl)n2)c1 [A-330]	1
CC(C)(C(=NNC=O)c1cccc(Cl)c1Cl)n1ccc(C(F)(F)F)n1 [A-332]	1
CC(C)(C(=NNC=O)c1cc(Cl)ccc1Cl)n1ccc(C(F)(F)F)n1 [A-334]	1
CC(C)(C(=NNC=O)c1cc(Cl)ccc1Cl)n1cnc(C(F)(F)F)n1 [A-335]	1
CC(C)(C(=NNC=O)c1cccc(F)c1F)n1ccc(C(F)(F)F)n1 [A-336]	1
CC(C)(C(=NNC=O)c1cccc(F)c1F)n1cnc(C(F)(F)F)n1 [A-337]	1
CC(C)(C(=NNC=O)c1ccc(F)cc1F)n1ccc(Cl)n1 [A-344]	1
CC(C)(C(=NNC=O)c1cccc(F)c1Cl)n1ccc(C(F)(F)F)n1 [A-349]	1
CC(C)(C(=NNC=O)c1cccc(F)c1Cl)n1cnc(C(F)(F)F)n1 [A-350]	1
CC(C)(C(=NNC=O)c1cc(F)ccc1Cl)n1ccc(C(F)(F)F)n1 [A-351]	1
CC(C)(C(=NNC=O)c1cccc2c1OC(F)(F)O2)n1ccc(C(F)(F)F)n1 [A-410]	1
CC(C)(C(=NNC=O)c1cccc2c1OC(F)(F)O2)n1ccc(Cl)n1 [A-412]	1
CC(C)(C(=NNC=O)c1cccc2c1OC(F)(F)O2)n1cnc(Cl)n1 [A-413]	1
CC(C)(C(=NNC=O)c1cccc2c1OC(F)(F)O2)n1ccc(Br)n1 [A-414]	1
CC(C)(C(=NNC=O)c1cccc2c1OC(F)(F)O2)n1cnc(C#N)n1 [A-417]	1
CC(C)(C(=NNC=O)c1cccc2c1OC(F)(F)O2)n1cnc([N+](=O)[O-])n1 [A-419]	1
CC(C)(C(=NNC=O)c1cccc2c1OC(F)(F)O2)n1cnc(C(F)F)n1 [A-424]	1
CSc1ccn(C(C)(C)C(=NNC=O)c2cccc(F)c2)n1 [A-430]	1
O=CNN=C(c1ccccc1)C1(n2ccc(C(F)(F)F)n2)CCC1 [B-81]	1
O=CNN=C(c1ccccc1Cl)C1(n2ccc(C(F)(F)F)n2)CC1 [B-148]	1

same assay, conditions: Comparative Test, active ingredient concentration 50 ppm; otherwise as Test Example 1 (cucumber)

Compound	root knot index
CC(C(=NNC=O)c1ccccc1)n1ccc(C(F)(F)F)n1 (centres unmarked) [Compound A-1 (WO2020/ 179910), reference compound]	2
CC(C(=NNC=O)c1ccccc1)n1cnc(C(F)(F)F)n1 (centres unmarked) [Compound A-3 (WO2020/ 179910), reference compound]	2
CC(C(=NNC=O)c1cccc(Cl)c1)n1ccc(C(F)(F)F)n1 (centres unmarked) [Compound A-58 (WO2020/ 179910), reference compound]	2
